The values below come from patent US20040082635A1, “Fused cyclic compounds and medicinal use thereof” (priority 2001, published 2004).

pIC50: −log10 of the molar value. Structures can show the parent of a compound that is named as a salt.

The test has as its target T1, HCV polymerase (Hepatitis C virus genotype 1b, UniProt P26663).
T1 construct: a region encoding NS5B (591 amino acids; J Virol 1991 Mar, 65(3), 1105-13) was amplified by PCR; 6 His (N); made in house; host or cells: Escherichia coli
Nature of the test: biochemical. As to conditions: read-out: HCV polymerase inhibitory activity IC50.

T1 sequence (P26663 2420-3010): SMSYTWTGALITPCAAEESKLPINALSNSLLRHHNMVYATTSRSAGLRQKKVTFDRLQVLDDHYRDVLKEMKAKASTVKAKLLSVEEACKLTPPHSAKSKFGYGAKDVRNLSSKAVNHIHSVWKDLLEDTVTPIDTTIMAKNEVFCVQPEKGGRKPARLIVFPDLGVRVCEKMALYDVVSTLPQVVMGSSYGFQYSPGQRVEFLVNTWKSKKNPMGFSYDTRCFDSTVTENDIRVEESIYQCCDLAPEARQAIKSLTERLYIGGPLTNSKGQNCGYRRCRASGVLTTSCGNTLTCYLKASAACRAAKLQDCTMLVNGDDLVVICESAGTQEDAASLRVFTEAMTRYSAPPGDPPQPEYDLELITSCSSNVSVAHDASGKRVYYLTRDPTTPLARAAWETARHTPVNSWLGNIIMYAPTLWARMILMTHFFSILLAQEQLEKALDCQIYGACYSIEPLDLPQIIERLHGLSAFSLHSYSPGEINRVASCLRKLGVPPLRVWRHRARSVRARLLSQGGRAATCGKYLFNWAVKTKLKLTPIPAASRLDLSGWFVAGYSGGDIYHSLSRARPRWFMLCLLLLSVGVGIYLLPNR

The term pIC50 denotes the IC50 on a negative log10 scale, so that one unit is a factor of ten. As to `Nc1nc(-c2ccc(-c3ccc(Cl)cc3)c(COc3ccc(-c4nc5cc(C(=O)O)ccc5n4C4CCCCC4)cc3)c2)cs1` [Example 358, 2-{4-[5-(2-aminothiazol-4-yl)-2-(4-chlorophenyl)benzyloxy]-phenyl}-1-cyclohexylbenzimidazole-5-carboxylic acid dihydrochloride], the pIC50 is 7.77. Then `CC(C)NC(=O)c1ccc(-c2ccc(F)cc2F)c(COc2ccc(-c3nc4cc(C(=O)O)ccc4n3C3CCCCC3)c(F)c2)c1` [Example 397, 2-{4-[2-(2,4-difluorophenyl)-5-(isopropylcarbamoyl)benzyloxy]-2-fluorophenyl}-1-cyclohexylbenzimidazole-5-carboxylic acid hydrochloride], with 7.43; and `O=C(O)c1ccc2c(c1)nc(-c1ccc(OCc3cc(C(=O)NCc4ccccc4)ccc3-c3ccc(Cl)cc3)cc1)n2C1CCCCC1` [Example 316, 2-{4-[2-(4-chlorophenyl)-5-(benzylcarbamoyl)benzyloxy]phenyl}-1-cyclohexylbenzimidazole-5-carboxylic acid hydrochloride], with 7.66; and `O=C(O)c1ccc2c(c1)nc(-c1ccc(OCc3cc(C(=O)NCC4CCCCC4)ccc3-c3ccc(Cl)cc3)cc1)n2C1CCCCC1` [Example 317, 2-{4-[2-(4-chlorophenyl)-5-(cyclohexylmethylcarbamoyl)-benzyloxy]phenyl}-1-cyclohexylbenzimidazole-5-carboxylic acid hydrochloride], with 7.49. Then `CCNC(=O)c1ccc(-c2ccc(Cl)cc2)c(COc2ccc(-c3nc4cc(C(=O)O)ccc4n3C3CCCCC3)c(F)c2)c1` [Example 390, 2-{4-[2-(4-chlorophenyl)-5-(ethylcarbamoyl)benzyloxy]-2-fluorophenyl}-1-cyclohexylbenzimidazole-5-carboxylic acid hydrochloride], with 7.85. Then `O=C(O)c1ccc2c(c1)nc(-c1ccc(Oc3ccc(OCc4ccccc4)cc3)cc1Cl)n2C1CCCCC1` [Example 149, 2-{4-(4-benzyloxyphenoxy)-2-chlorophenyl}-1-cyclohexylbenzimidazole-5-carboxylic acid], with 6.82; and `Cc1nc(COc2ccc(-c3nc4cc(C(=O)O)ccc4n3C3CCCCC3)cc2)c(-c2ccc(Cl)cc2)s1` [Example 206, 2-{4-[{5-(4-chlorophenyl)-2-methyl-4-thiazolyl}methoxy]phenyl}-1-cyclohexylbenzimidazole-5-carboxylic acid], with 7.30; and `CCC(=O)N(CC)c1ccc(-c2ccc(Cl)cc2)c(COc2ccc(-c3nc4cc(C(=O)O)ccc4n3C3CCCCC3)c(F)c2)c1` [Example 467, 2-[4-{2-(4-chlorophenyl)-5-[N-ethyl-N-(ethylcarbonyl)amino]-benzyloxy}-2-fluorophenyl]-1-cyclohexylbenzimidazole-5-carboxylic acid hydrochloride], with 7.49.

Turning to `Cc1cnc(-c2ccc(Br)c(COc3ccc(-c4nc5cc(C(=O)O)ccc5n4C4CCCCC4)cc3)c2)s1` [Example 364, 2-{4-[2-bromo-5-(5-methylthiazol-2-yl)benzyloxy]phenyl}-1-cyclohexylbenzimidazole-5-carboxylic acid hydrochloride], the pIC50 is 6.92. The value for `CSc1ccc(-c2ccc(Cl)cc2)c(COc2ccc(-c3nc4cc(C(=O)O)ccc4n3C3CCCCC3)cc2)c1` [Example 297, 2-{4-[2-(4-chlorophenyl)-5-methylthiobenzyloxy]phenyl}-1-cyclohexylbenzimidazole-5-carboxylic acid] was 7.66; that for `O=C(O)c1ccc(-c2ccc(Cl)cc2)c(COc2ccc(-c3nc4cc(C(=O)O)ccc4n3C3CCCCC3)c(F)c2)c1` [Example 305, 2-{4-[5-carboxy-2-(4-chlorophenyl)benzyloxy]-2-fluorophenyl}-1-cyclohexylbenzimidazole-5-carboxylic acid] was 8.00.
